Like-named read-outs stand apart in the source and are kept apart here.

For assay [1], the target named is Beta Secretase enzyme (BACE) (Homo sapiens, UniProt P56817). Put plainly: In vitro enzymatic BACE FRET (fluorescence resonance energy transfer) assay.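 Further: fluorescence read after 1 h with 50 nM quenched peptide substrate spanning the BACE cleavage site, in pH 4.2 acetate buffer containing 10% DMSO and nonionic detergent.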 In kind it is biochemical. Particulars: read-out: BACE1 FRET assay (IC50).
For assay [2], the system named is Aβ40 in conditioned medium of cells stably expressing Amyloid Precursor Protein (APP). Kind of assay: In vitro BACE cell-based assay (Aβ40 in conditioned medium, sandwich ELISA).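 Further: compounds added as a dilution series, secreted peptide quantified by europium time-resolved fluorescence readout, potency fitted from percent of control versus compound concentration.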 Particulars: Homo sapiens, HEK293, HEK cells, cell-based assay; read-out: HEK cell assay (IC50). For orientation: In an ELISA, binding on a coated surface is turned into a signal by an enzyme label.

Beta Secretase enzyme (BACE), sequence (P56817 46-501): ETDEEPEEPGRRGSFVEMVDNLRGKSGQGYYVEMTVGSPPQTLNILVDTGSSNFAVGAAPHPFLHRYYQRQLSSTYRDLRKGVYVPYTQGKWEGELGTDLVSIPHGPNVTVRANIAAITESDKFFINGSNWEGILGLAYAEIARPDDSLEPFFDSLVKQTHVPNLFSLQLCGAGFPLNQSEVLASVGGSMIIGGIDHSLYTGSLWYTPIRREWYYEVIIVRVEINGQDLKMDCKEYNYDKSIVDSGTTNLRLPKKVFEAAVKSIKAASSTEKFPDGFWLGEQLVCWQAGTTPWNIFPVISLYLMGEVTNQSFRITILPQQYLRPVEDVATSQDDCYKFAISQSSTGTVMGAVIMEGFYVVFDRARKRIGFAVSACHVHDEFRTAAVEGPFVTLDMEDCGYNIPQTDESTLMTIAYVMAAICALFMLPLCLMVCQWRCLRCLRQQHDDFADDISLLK

The IC50 is the concentration needed to halve the response being measured. Turning to `COCC(=O)N[C@@H](Cc1ccc(F)cc1)[C@H](O)CN[C@H]1CC2(CCC2)Oc2c1cc(CC(C)(C)C)nc2C` [compound 153], the results for the concentration for half-maximal inhibition (IC50) in assay [1] (BACE enzyme assay) and in assay [2] were 200 nM and 153 nM, respectively.
For the molecule `COC(C)C(=O)NC(Cc1ccc(F)cc1)C(O)CNC1CC2(CCC2)Oc2ncc(CC(C)(C)C)cc21` [compound 154, (2R)—N-((1S,2R)-3-(((4′S)-6′-(2,2-dimethylpropyl)-3′,4-dihydrospiro[cyclobutane-1,2′-pyrano[2,3-b]pyridin]-4′-yl)amino)-1-((4-fluorophenyl)methyl)-2-hydroxypropyl)-2-(methyloxy)propanamide], the IC50 in assay [1] (BACE enzyme assay) turned out to be 13.2 nM; in assay [2], 28 nM.
As to `CO[C@@H](C)C(=O)N[C@@H](Cc1ccc(F)cc1)[C@H](O)CN[C@H]1CC2(CCC2)Oc2ncc(CC(C)(C)C)cc21` [compound 155], the values for the IC50 in assay [1] (BACE enzyme assay) and in assay [2] were 40.1 nM and 76 nM, respectively.
Consider `CC(O)C(=O)N[C@@H](Cc1ccc(F)cc1)[C@H](O)CN[C@H]1CC2(CCC2)Oc2ncc(CC(C)(C)C)cc21` (some centres unmarked) [compound 156], for which the results for the IC50 in assay [1] (BACE enzyme assay) and in assay [2] were 27.7 nM and 45.3 nM, respectively.
Consider `C[C@@H](O)C(=O)N[C@@H](Cc1ccc(F)cc1)[C@H](O)CN[C@H]1CC2(CCC2)Oc2ncc(CC(C)(C)C)cc21` [compound 157], for which the IC50 in assay [1] (BACE enzyme assay) came out at 15.1 nM; in assay [2], 21.7 nM.
Regarding `CC(C)(C)Cc1cnc2c(c1)[C@@H](NC[C@@H](O)[C@H](Cc1ccc(F)cc1)NC(=O)C(F)C(F)(F)F)CC1(CCC1)O2` (some centres unmarked) [compound 158], the concentration for half-maximal inhibition (IC50) in assay [1] (BACE enzyme assay) amounted to 50.4 nM; in assay [2], 241 nM.
On to `CC(=O)N[C@@H](Cc1ccc(F)cc1)[C@H](O)CN[C@H]1CC2(CCC2)Oc2ncc(CC(C)(C)C(F)F)cc21` [compound 159], for which the IC50 in assay [1] (BACE enzyme assay) was 19.2 nM; in assay [2] it was 36.3 nM.
Turning to `COCC(=O)N[C@@H](Cc1ccc(F)cc1)[C@H](O)CN[C@H]1CC2(CCC2)Oc2ncc(CC(C)(C)C(F)F)cc21` [compound 160], the IC50 was 8.84 nM in assay [1] (BACE enzyme assay) and 39.1 nM in assay [2].
As to `CC(=O)N[C@@H](Cc1ccc(F)cc1)[C@H](O)CN[C@H]1CC2(CCC2)Oc2ccc(CC(C)(C)C#N)cc21` [compound 161], the concentration for half-maximal inhibition (IC50) in assay [1] (BACE enzyme assay) is 11.2 nM; in assay [2] it was 17.4 nM.
In the case of `COCC(=O)N[C@@H](Cc1ccc(F)cc1)[C@H](O)CN[C@H]1CC2(CCC2)Oc2ccc(CC(C)(C)C#N)cc21` [compound 162], the half-maximal inhibitory concentration (IC50) in assay [1] (BACE enzyme assay) came to 44.6 nM; in assay [2], 31.1 nM.
For `COCC(=O)N[C@@H](Cc1ccnc(C(F)(F)F)c1)[C@H](O)CN[C@H]1CC2(CCC2)Oc2ncc(CC(C)(C)C)cc21` [compound 163], the concentration for half-maximal inhibition (IC50) in assay [1] (BACE enzyme assay) is 26.9 nM; in assay [2] it was 35.9 nM.
For the molecule `CC(=O)N[C@@H](Cc1ccc(F)cc1)[C@H](O)CN[C@H]1CC2(CCC2)Cc2ncc(CC(C)(C)C)cc21` [compound 164], the IC50 in assay [1] (BACE enzyme assay) was 62.3 nM; in assay [2] it was 20.5 nM.
`CC(=O)N[C@@H](Cc1ccc(F)cc1)[C@H](O)CN[C@H]1CC2(CCC2)C(F)(F)c2ncc(CC(C)(C)C)cc21` [compound 165]: the IC50 was found to be 107 nM in assay [1] (BACE enzyme assay) and 109 nM in assay [2].
With `COCC(=O)N[C@@H](Cc1ccnc(OCC(F)(F)F)c1)[C@H](O)CN[C@H]1CC2(CCC2)Oc2ncc(CC(C)(C)C)cc21` [compound 166], the concentration for half-maximal inhibition (IC50) in assay [1] (BACE enzyme assay) amounted to 10.8 nM; in assay [2] it was 9.85 nM.
As for `CC(=O)N[C@@H](Cc1ccc2c(c1)OCO2)[C@H](O)CN[C@H]1CC2(CCC2)Cc2ncc(CC(C)(C)C)cc21` [compound 167], the figures for the IC50 in assay [1] (BACE enzyme assay) and in assay [2] were 125 nM and 68.4 nM, respectively.
On to `COCC(=O)N[C@@H](Cc1ccc2c(c1)OCO2)[C@H](O)CN[C@H]1CC2(CCC2)Cc2ncc(CC(C)(C)C)cc21` [compound 168], for which the half-inhibitory concentration (IC50) in assay [1] (BACE enzyme assay) came to 149 nM; in assay [2] it was 211 nM.
In the same order, the values of `CC(=O)N[C@@H](Cc1ccc2c(c1)OCO2)[C@H](O)CN[C@H]1CC2(CCC2)Oc2c(F)cc(CC(C)(C)C)cc21` [compound 170] are 12.5 nM and 53.5 nM.
In the same order, the values of `CC(=O)N[C@@H](Cc1ccc(F)cc1)[C@H](O)CN[C@H]1CC2(CCC2)Oc2c(F)cc(CC(C)(C)C#N)cc21` [compound 171] are 15.9 nM and 28.2 nM.
On to `COCC(=O)N[C@@H](Cc1ccc(F)cc1)[C@H](O)CN[C@H]1CC2(CCC2)Oc2c(F)cc(CC(C)(C)C#N)cc21` [compound 172], for which the IC50 was 18.6 nM in assay [1] (BACE enzyme assay) and 43.3 nM in assay [2].
Consider `CO[C@@H](C)C(=O)N[C@@H](Cc1ccc(F)cc1)[C@H](O)CN[C@H]1CC2(CCC2)Oc2c(F)cc(CC(C)(C)C#N)cc21` [compound 173], for which the results for the IC50 in assay [1] (BACE enzyme assay) and in assay [2] were 36.4 nM and 54.6 nM, respectively.
In the case of `CC(=O)N[C@@H](Cc1ccc(F)cc1)[C@H](O)CN[C@H]1CC2(CCC2)Oc2c(F)cc(CC(C)(C)C)cc21` [compound 174], the IC50 turned out to be 7.2 nM in assay [1] (BACE enzyme assay) and 52.6 nM in assay [2].
Consider `CO[C@@H](C)C(=O)N[C@@H](Cc1ccc(F)cc1)[C@H](O)CN[C@H]1CC2(CCC2)Oc2c(F)cc(CC(C)(C)C)cc21` [compound 175], for which the IC50 in assay [1] (BACE enzyme assay) turned out to be 17.2 nM; in assay [2] it was 229 nM.
Consider `CC(=O)N[C@@H](Cc1ccc(F)c(F)c1)[C@H](O)CN[C@H]1CC2(CCC2)Oc2ncc([C@H](F)C(C)(C)C)cc21` [compound 177], for which the half-inhibitory concentration (IC50) is 2.17 nM in assay [1] (BACE enzyme assay) and 9.34 nM in assay [2].
On to `CC(=O)N[C@@H](Cc1ccc2c(c1)OCO2)[C@H](O)CN[C@H]1CC2(CCC2)Oc2ncc(CC(C)(C)CF)cc21` [compound 178], for which the figures for the IC50 in assay [1] (BACE enzyme assay) and in assay [2] were 8.39 nM and 17.5 nM, respectively.
As to `COCC(=O)N[C@@H](Cc1ccc(F)cc1)[C@H](O)CN[C@H]1CC2(CCC2)Oc2ncc([C@H](F)C(C)(C)C)cc21` [compound 179], the IC50 is 5.49 nM in assay [1] (BACE enzyme assay) and 18.6 nM in assay [2].
Regarding `CC(=O)N[C@@H](Cc1ccccc1)[C@H](O)CN[C@H]1CC2(CCC2)Oc2ncc(CC(C)(C)CF)cc21` [compound 180], the values for the 50% inhibitory concentration (IC50) in assay [1] (BACE enzyme assay) and in assay [2] were 2.32 nM and 7 nM, respectively.
Consider `COCC(=O)N[C@@H](Cc1ccc2c(c1)OCO2)[C@H](O)CN[C@H]1CC2(CCC2)Oc2ncc(CC(C)(C)CF)cc21` [compound 181], for which the IC50 in assay [1] (BACE enzyme assay) worked out at 15.5 nM; in assay [2] it was 17.6 nM.
For `CC(=O)N[C@@H](Cc1ccc2c(c1)OCO2)[C@H](O)CN[C@H]1CC2(CCC2)Oc2ncc([C@H](F)C(C)(C)C)cc21` [compound 182], the concentration for half-maximal inhibition (IC50) was determined as 7.01 nM in assay [1] (BACE enzyme assay) and 16 nM in assay [2].
In the same order, the values of `COCC(=O)N[C@@H](Cc1ccc2c(c1)OCO2)[C@H](O)CN[C@H]1CC2(CCC2)Oc2ncc([C@H](F)C(C)(C)C)cc21` [compound 183] are 8.63 nM and 17.8 nM.
In the case of `COCC(=O)N[C@@H](Cc1ccccc1)[C@H](O)CN[C@H]1CC2(CCC2)Oc2ncc(CC(C)(C)CF)cc21` [compound 184], the IC50 in assay [1] (BACE enzyme assay) is 2.46 nM; in assay [2] it was 6.45 nM.
On to `CC(C)(C)[C@@H](F)c1cnc2c(c1)[C@@H](NC[C@@H](O)[C@H](Cc1ccc3c(c1)OCO3)NC(=O)CF)CC1(CCC1)O2` [compound 185], for which the IC50 was 18.5 nM in assay [1] (BACE enzyme assay) and 26.4 nM in assay [2].
For `CO[C@H](C)C(=O)N[C@@H](Cc1ccc(F)cc1)[C@H](O)CN[C@H]1CC2(CCC2)Oc2ncc([C@H](F)C(C)(C)C)cc21` [compound 186], the values for the IC50 in assay [1] (BACE enzyme FRET assay) and in assay [2] were 7.76 nM and 26.5 nM, respectively.
On to `COCC(=O)N[C@@H](Cc1ccc2c(c1)OCO2)[C@H](O)CN[C@H]1CC(C)(C)Cc2sc(CC(C)(C)C)cc21` [compound 187], for which the IC50 in assay [1] (BACE enzyme FRET assay) amounted to 20.2 nM; in assay [2] it was 63.5 nM.
Consider `COCC(=O)N[C@@H](Cc1ccc(F)cc1)[C@H](O)CN[C@H]1CC2(CCC2)Oc2ncc([C@H](O)C(C)(C)C)cc21` [compound 188], for which the values for the concentration for half-maximal inhibition (IC50) in assay [1] (BACE enzyme FRET assay) and in assay [2] were 61.2 nM and 1660 nM, respectively.
Take `COCC(=O)N[C@@H](Cc1ccc(F)cc1)[C@H](O)CN[C@H]1CC2(CCC2)Oc2ncc([C@@H](O)C(C)(C)C)cc21` [compound 189]: the results for the IC50 in assay [1] (BACE enzyme FRET assay) and in assay [2] were 880 nM and 1000 nM, respectively.
Consider `CO[C@H](C)C(=O)N[C@@H](Cc1ccc2c(c1)OCO2)[C@H](O)CN[C@H]1CC2(CCC2)Oc2ncc(CC(C)(C)CF)cc21` [compound 190], for which the half-inhibitory concentration (IC50) amounted to 23.8 nM in assay [1] (BACE enzyme FRET assay) and 43.2 nM in assay [2].
Consider `COCC(=O)N[C@@H](Cc1ccc(F)cc1)[C@H](O)CN[C@H]1CC2(CCC2)Oc2ncc(CCC(F)(F)F)cc21` [compound 193], for which the IC50 in assay [1] (BACE enzyme FRET assay) is 202 nM; in assay [2], 518 nM.
With `CO[C@H](C)C(=O)N[C@@H](Cc1ccc2c(c1)OCO2)[C@H](O)CN[C@H]1CC2(CCC2)Oc2ncc(CCC(F)(F)F)cc21` [compound 194], the IC50 was found to be 1070 nM in assay [1] (BACE enzyme FRET assay) and 1520 nM in assay [2].
Turning to `COCC(=O)N[C@@H](Cc1ccc2c(c1)OCO2)[C@H](O)CN[C@H]1CC2(CCC2)Oc2ncc(CCC(F)(F)F)cc21` [compound 195], the results for the half-inhibitory concentration (IC50) in assay [1] (BACE enzyme FRET assay) and in assay [2] were 754 nM and 621 nM, respectively.
Take `COCC(=O)N[C@@H](Cc1ccc2c(c1)OCO2)[C@@H](CN[C@H]1CC2(CCC2)Oc2ncc([C@H](F)C(C)(C)C)cc21)OC` [compound 196]: the half-maximal inhibitory concentration (IC50) in assay [1] (BACE enzyme FRET assay) stood at 2640 nM; in assay [2] it was 3990 nM.
`COCCC(=O)N[C@@H](Cc1ccc2c(c1)OCO2)[C@H](O)CN[C@H]1CC2(CCC2)Oc2ncc(CC(C)(C)C)cc21` [compound 197]: the values for the IC50 in assay [1] (BACE enzyme FRET assay) and in assay [2] were 20.9 nM and 21.9 nM, respectively.
Regarding `CC(=O)NC(Cc1ccc(F)cc1)C(O)CNC1CC2(CCC2)Oc2ncc(CC(C)C(F)F)cc21` [compound 198, N-((1S,2R)-3-(((4′S)-6′-((2S)-3,3-difluoro-2-methylpropyl)-3′4′-dihydrospiro[cyclobutane-1,2′-pyrano[2,3-b]pyridin]-4′-yl)amino)-1-((4-fluorophenyl)methyl)-2-hydroxypropyl)acetamide], the half-maximal inhibitory concentration (IC50) in assay [1] (BACE enzyme FRET assay) was determined as 29 nM; in assay [2] it was 32.1 nM.
For `CC(=O)N[C@@H](Cc1ccc(F)cc1)[C@H](O)CN[C@H]1CC2(CCC2)Oc2ncc(C[C@@H](C)C(F)F)cc21` [compound 199], the IC50 amounted to 45.2 nM in assay [1] (BACE enzyme FRET assay) and 59.1 nM in assay [2].

Values taken from patent publication US8163909B2, “Substituted hydroxyethyl amine compounds as beta-secretase modulators and methods of use” (Amgen Inc., priority 2007, dated 2012).
